# Laboratory results reported in US8268635B2, “Methods of identifying agents that selectively activate p38 and/or NKkB signaling” (priority 2006, dated 2012).
# Where no end group is shown, it is not given here.
# Tests used:
# NFκB = NFκB pathway activation in human neutrophils (nuclear translocation of NFκB); type: cell-based
# Experimental: After cell lysis, nuclear fractions were prepared, nuclear proteins separated by SDS page (12% gel), transferred to nitrocellulose and probed with an anti NFκB p65 antibody (Santa Cruz).
# Western blot analysis was conducted as described previously (Hii, C. S., Huang, Z. H., Bilney, A., Costabile, M., Murray, A. W., Rathjen, D. A., Der, C. J., and Ferrante, A. (1998) J. Biol. Chem. 273: 19277-19282). Briefly, equal amounts of denatured protein from each lysate were separated by 12% SDS polyacrylamide gel electrophoresis (PAGE). The proteins were electrophoretically transferred to nitrocellulose membranes (Schleicher and Schuell, Keene, N. H., USA)(3 h at 40V). […] Immune complexes were visualised by enhanced chemiluminescence (Hii, C. S., Huang, Z. H., Bilney, A., Costabile, M., Murray, A. W., Rathjen, D. A., Der, C. J., and Ferrante, A. (1998) J. Biol. Chem. 273: 19277-19282).
# This pathway, akin to the p38 pathway, is dependent on TRAF-2 and RIP (Kyriakis, J. M., and Auruch, J. (2001) Physiol Rev. 81: 807-869). We measured the nuclear translocation of NFκB as an indicator of the activation of this pathway.
# macrophage = details: previous comparisons; cited from earlier work
# ERK = ERK activation in adherent neutrophils; type: cell-based, human; details: neutrophils pre-adhered to plasma-coated dishes; 15 min; TNF 1000 U/ml, TNF70-80 10 μM
# Experimental: Neutrophils were prepared from peripheral blood of healthy donors by a rapid single-step technique (Kumaratilake, L. M., Rathjen, D. A., Mack, P., Widmer, F., Prasertsiriroj, V., and Ferrante, A. (1995) J. Clin. Invest. 95: 2315-2323) using Hypaque-Ficoll and according to the institution's guidelines on human ethics. […] These were either used as cells in suspension or as adhered neutrophils by adding the cells to plasma coated plates as previously described (Powell, W., Gravel, S., Halwani, F., Hii, C. S., Huang, Z. H., Tan, A. M., and Ferrante, A. (1997) J. Immunol. 159: 2952-2959). […]
# (§1) KHS (hereon referred to as “GCKR”) activity was assayed as described previously using myelin basic protein as a substrate (Shi, C. S., Leonardi, A., Kyriakis, J., Siebenlist, U., and Kerhl, J. H. (1999) J. Immunol. 163: 3279-3285). ASK-1 activation was determined in immunoprecipitates of ASK-1 by autophosphorylation (Kyriakis, J. M., and Auruch, J. (2001) Physiol. Rev. 81: 807-869). p38 and ERK activities were determined as described using myelin basic protein as a substrate (Hii, C. S., Huang, Z. H., Bilney, A., Costabile, M., Murray, A. W., Rathjen, D. A., Der, C. J., and Ferrante, A. (1998) J. Biol. Chem. 273: 19277-19282). […]
# GCKR/GLK = GCKR/GLK activity in adherent neutrophils; type: cell-based, human; details: plasma-coated dishes; 15 min; TNF 1000 U/ml, TNF70-80 10 μM
# Experimental: (§2) GCKR was immunoprecipitated from cell lysates and activity assayed using myelin basic protein (MBP) as the substrate. […] Activation of ASK-1 was determined by kinase autophosphorylation.
# (§3) KHS (hereon referred to as “GCKR”) activity was assayed as described previously using myelin basic protein as a substrate (Shi, C. S., Leonardi, A., Kyriakis, J., Siebenlist, U., and Kerhl, J. H. (1999) J. Immunol. 163: 3279-3285). ASK-1 activation was determined in immunoprecipitates of ASK-1 by autophosphorylation (Kyriakis, J. M., and Auruch, J. (2001) Physiol. Rev. 81: 807-869). p38 and ERK activities were determined as described using myelin basic protein as a substrate (Hii, C. S., Huang, Z. H., Bilney, A., Costabile, M., Murray, A. W., Rathjen, D. A., Der, C. J., and Ferrante, A. (1998) J. Biol. Chem. 273: 19277-19282). […] A solid phase assay using glutathione-S-transferase (GST)-conjugated-jun (1-79) was employed to assay JNK activity (Hii, C. S., Huang, Z. H., Bilney, A., Costabile, M., Murray, A. W., Rathjen, D. A., Der, C. J., and Ferrante, A. (1998) J. Biol. Chem. 273: 19277-19282). Phosphorylated ASK-1, myelin basic protein and GST-jun (1-79) were fractionated on 8, 16 and 12% SDS polyacrylamide gels, respectively, and the bands were detected and radioactivity determined using an Instant Imager (Packard Instruments, Canberra, Australia).
# ASK-1 [1] = test: ASK-1 autophosphorylation in neutrophils; type: cell-based, human
# Experimental: as §2, §3
# [2] = tested on: mutant receptor peptide M4; test: Binding of biotinylated TNF70-80 to mutant receptor peptide M4; design: species or system human; details: 20 μM biotinylated TNF70-80, 18 hrs at 37° C.
# Experimental: (§4) 100 μl of 0.7 mM solution of M4 or 1% BSA in PBS for control was coated on plates overnight for 24 hrs at 37° C. Plates were blocked for 6 hrs at 37° C. with 3% BSA in PBS. 100 μl of 20 μM of B-TNF70-80 was added to each well and allowed to incubate for 18 hrs at 37° C. Streptavidin-horseradish peroxidase and TMB H2O2 was added and bound product was detected by measuring absorbance at 450 nm.
# as §4, with “Streptvadin-horseradish” for “Streptavidin-horseradish”
# E-selectin = E-selectin expression on endothelial cells; type: cell-based, human; details: TNF 100 or 1000 U/ml, TNF70-80 1-50 μM; data not presented
# JNK [3] = test: JNK activation in neutrophils in suspension; type: cell-based, human; details: 15 min; TNF 100 U/ml, TNF70-80 10 μM, anisomycin 2.5 μg/ml
# Experimental: (§5) The cells were lysed and the lysate assessed by western blot analysis for the level of dual-phosphorylated ERK1/ERK2 (top panel) and ERK2 protein (bottom panel). […] The level of myelin basic protein phosphorylation was quantitated by an Instant Imager.
# (§6) Neutrophils were prepared from peripheral blood of healthy donors by a rapid single-step technique (Kumaratilake, L. M., Rathjen, D. A., Mack, P., Widmer, F., Prasertsiriroj, V., and Ferrante, A. (1995) J. Clin. Invest. 95: 2315-2323) using Hypaque-Ficoll and according to the institution's guidelines on human ethics. […]
# as §1
# ERK1/ERK2 = ERK1/ERK2 activation in neutrophils in suspension; type: cell-based, human; details: TNF, TNF70-80 15 min; PMA 100 nM 5 min
# Experimental: as §5, §6, §1
# JNK [4] = test: JNK activity in adherent neutrophils; type: cell-based, human; details: neutrophils pre-adhered to plasma-coated dishes; 15 min; TNF 1000 U/ml, TNF70-80 10 μM
# Experimental: Neutrophils were prepared from peripheral blood of healthy donors by a rapid single-step technique (Kumaratilake, L. M., Rathjen, D. A., Mack, P., Widmer, F., Prasertsiriroj, V., and Ferrante, A. (1995) J. Clin. Invest. 95: 2315-2323) using Hypaque-Ficoll and according to the institution's guidelines on human ethics. […] These were either used as cells in suspension or as adhered neutrophils by adding the cells to plasma coated plates as previously described (Powell, W., Gravel, S., Halwani, F., Hii, C. S., Huang, Z. H., Tan, A. M., and Ferrante, A. (1997) J. Immunol. 159: 2952-2959).
# as §1
# ASK-1 [5] = test: ASK-1 autophosphorylation in HEK293T cells; type: cell-based, human; details: 3 or 7 min
# Experimental: as §2, §3
# neutrophils = test: Neutrophil superoxide production, lucigenin chemiluminescence assay; type: cell-based, human; details: agent alone as stimulus
# Experimental: Neutrophils were pre-treated with varying concentrations of SB203580 for 30 min and then exposed to 10 μM TNF70-80. The lucigenin enhanced chemiluminescence produced by the cells was measured in a luminometer. The peak initial rate of chemiluminescence produced is presented as the mean±sem of six experiments. The response in the presence of the inhibitor is expressed as a % of the control response.
# Neutrophil superoxide production was measured as the chemiluminescence generated by the reduction of lucigenin, essentially as described previously (Kumaratilake, L. M., Rathjen, D. A., Mack, P., Widmer, F., Prasertsiriroj, V., and Ferrante, A. (1995) J. Clin. Invest. 95: 2315-2323). Briefly, to 1×10^6 neutrophils in 400 μl of HBSS was added 100 μl of stimulus and 500 μl of 250 μg/ml of lucigenin. The chemiluminescence was measured in a luminometer (Berthold Technologies, Bad Wildbad, Germany) over a 20 min period and the data imported into Microsoft Excel (Redmond, Wash.).
# The cells were placed in a water-jacketed luminometer chamber (37° C.) (Autolumat Plus Model LB 953, Berthold Technologies, Bundoora, Australia) and the resulting light output recorded in millivolts (mV) at 10 second intervals. The data was analysed with Multiuser software (Berthold Tubemaster, Bundoora, Australia). The results are expressed as peak superoxide produced.
# Various concentrations of TNFR1 fragment or diluent were added to neutrophils (106 in 100 μl HBSS) and incubated at 37° C. for 30 min 5% CO2 in air. After incubation 500 μl of lucigenin (250 μM, final), 100 μl of TNF70-80 (100 μg) were added and the final volume was adjusted to 1 ml.
# Superoxide production by human neutrophils was measured by the reduction of the fluorescent lucigenin, (9,9′-bis(N-methyl-acridinium nitrate) (Sigma Chemical Company). This provides a direct and specific measure of agonist-induced superoxide production. Lucigenin-dependant chemiluminescence was measured as described previously Gyllenhannar H. (1987) J. Immunol. Methods 97:209-213. Briefly, 50 μl of 100 mg/ml of peptide or diluent and 250 ml of lucigenin was added to neutrophils (5×10^5 in 50 μl HBSS). The cells were placed in a water-jacketed luminometer chamber (37° C.) (Autolumat Plus Model LB 953, Berthold Technologies, Bundoora, Australia) and the resulting light output recorded in millivolts (mV) at 10 second intervals. The data was analysed with Multi-user software (Berthold Tubemaster, Bundoora, Australia).
# Data are presented as mean±SEM of 3 experiments.
# JNK [6] = test: JNK activity in HUVEC (GST-jun solid phase assay); type: cell-based, human; details: 15 min; TNF 100 and 1000 U/ml, TNF70-80 1-50 μM
# Experimental: The level of myelin basic protein phosphorylation was quantitated by an Instant Imager.
# as §3
substance,measurement,setting,value
PSTHVLITHTI-OH [TNF70-80],nuclear translocation of NFκB in neutrophils,"NFκB; TNF70-80 10 μM, 30 min or 1 h",caused the translocation of NFκB to the nucleus
same,degradation of IκB,NFκB; data not shown,caused the degradation of IκB
same,concentration that equates to 1000 U/ml of TNF in ability to stimulate nitric oxide production in macrophage,macrophage,5.0 µg/mL
same,ERK activation in adherent neutrophils,ERK,failed to stimulate the activation of the ERKs
same,GCKR/GLK activity in adherent neutrophils,GCKR/GLK,poor at stimulating GCKR/GLK activity
same,ASK-1 phosphorylation in non-adherent neutrophils,ASK-1 [1]; data not shown,not altered
same,ASK-1 phosphorylation in adherent neutrophils,"ASK-1 [1]; plasma-coated dishes, 3 or 7 min",neither TNF nor TNF70-80 increased the level of ASK-1 phosphorylation
same,binding to mutant receptor peptide M4 (truncated receptor),[2],binds to the truncated receptor
same,expression of E-selectin on endothelial cells,E-selectin,but not TNF70-80 (1-50 μM) stimulated the expression of E-selectin
same,activity/phosphorylation of JNK in neutrophils in suspension,JNK [3],neither TNF nor TNF70-80 stimulated the activity of either JNK or ERK
same,activity/dual phosphorylation of ERK in neutrophils in suspension,ERK1/ERK2,neither TNF nor TNF70-80 stimulated the activity of either JNK or ERK
same,activity of JNK in adherent neutrophils,JNK [4],but not TNF70-80 stimulated the activity of JNK
same,ASK-1 autophosphorylation in HEK293T cells,ASK-1 [5],did not affect the level of ASK-1 phosphorylation
same,stimulation of neutrophil respiratory burst / superoxide production,neutrophils,stimulated a respiratory burst
same,activity of JNK in HUVEC,JNK [6],failed to stimulate the activity of JNK
